Measured values taken from ChEMBL document CHEMBL3885881, “DrugMatrix”.

Species: Rattus norvegicus
Experiment: DrugMatrix - Regimen: Daily Repeat
Type: toxicity, organism-based, Sprague-Dawley
Parameters: regimen Daily Repeat, gender Male, age 6-8 weeks
Details: in vivo, po, route oral GAVAGE, vehicle 100 % WATER; for ABSOLUTE BASOPHIL / ABSOLUTE EOSINOPHIL / ABSOLUTE LYMPHOCYTE / ABSOLUTE MONOCYTE / ABSOLUTE SEGMENTED NEUTROPHIL / BASOPHIL / EOSINOPHIL / ERYTHROCYTE COUNT / HEMATOCRIT / HEMOGLOBIN / LEUKOCYTE COUNT / LYMPHOCYTE / MEAN CORPUSCULAR HEMOGLOBIN / MEAN CORPUSCULAR HEMOGLOBIN CONCENTRATION / MEAN CORPUSCULAR VOLUME / MONOCYTE / NEUTROPHIL / NUCLEATED RED BLOOD CELLS / PLATELET COUNT: tissue Blood; for ALANINE AMINOTRANSFERASE / ALBUMIN / ALKALINE PHOSPHATASE / ASPARTATE AMINOTRANSFERASE / BLOOD UREA NITROGEN / CARBON DIOXIDE / CHLORIDE / CHOLESTEROL / CREATINE PHOSPHOKINASE / CREATININE / GLUCOSE / LACTATE DEHYDROGENASE / LIPASE / PHOSPHORUS / POTASSIUM / SODIUM / TOTAL BILIRUBIN / TOTAL PROTEIN / URIC ACID: tissue Plasma
[1] = 28 mg/kg, 120 h, dose level Low, time 5 day
[2] = 1500 mg/kg, 72 h, dose level High, time 3 day
[3] = 1500 mg/kg, 120 h, dose level High, time 5 day

Structure (SMILES): CS(=O)(=O)c1ccc([C@@H](O)[C@@H](CO)NC(=O)C(Cl)Cl)cc1 [THIAMPHENICOL]
- ABSOLUTE BASOPHIL [1]: 0 CELLS/uL
- ABSOLUTE EOSINOPHIL [1]: 95.33 CELLS/uL
- ABSOLUTE LYMPHOCYTE [1]: 6576.67 CELLS/uL
- ABSOLUTE MONOCYTE [1]: 0 CELLS/uL
- ABSOLUTE SEGMENTED NEUTROPHIL [1]: 828 CELLS/uL
- BASOPHIL [1]: 0%
- EOSINOPHIL [1]: 1.33%
- ERYTHROCYTE COUNT [1]: 5.62 x10E6/uL
- HEMATOCRIT [1]: 36.03%
- HEMOGLOBIN [1]: 13.5 G/DL
- LEUKOCYTE COUNT [1]: 7.5 x10E3/uL
- LYMPHOCYTE [1]: 87.67%
- MEAN CORPUSCULAR HEMOGLOBIN [1]: 24.03 pg
- MEAN CORPUSCULAR HEMOGLOBIN CONCENTRATION [1]: 37.47 G/DL
- MEAN CORPUSCULAR VOLUME [1]: 64.07 fL
- MONOCYTE [1]: 0%
- NEUTROPHIL [1]: 11%
- NUCLEATED RED BLOOD CELLS [1]: 0 /100WBC
- PLATELET COUNT [1]: 1264 x10E3/uL
- ALANINE AMINOTRANSFERASE [1]: 51 u/L
- ALBUMIN [1]: 4.33 G/DL
- ALKALINE PHOSPHATASE [1]: 379.67 u/L
- ASPARTATE AMINOTRANSFERASE [1]: 78 u/L
- BLOOD UREA NITROGEN [1]: 15 mg/dL
- CARBON DIOXIDE [1]: 28 mmol/L
- CHLORIDE [1]: 101 MEQ/L
- CHOLESTEROL [1]: 82.67 mg/dL
- CREATINE PHOSPHOKINASE [1]: 219 u/L
- CREATININE [1]: 0.19 mg/dL
- GLUCOSE [1]: 146.67 mg/dL
- LACTATE DEHYDROGENASE [1]: 121 u/L
- LIPASE [1]: 8.33 u/L
- PHOSPHORUS [1]: 12.2 mg/dL
- POTASSIUM [1]: 5.86 MEQ/L
- SODIUM [1]: 148.13 MEQ/L
- TOTAL BILIRUBIN [1]: 0.23 mg/dL
- TOTAL PROTEIN [1]: 6.37 G/DL
- URIC ACID [1]: 1.07 mg/dL
- ABSOLUTE BASOPHIL [2]: 0 CELLS/uL
- ABSOLUTE EOSINOPHIL [2]: 242.33 CELLS/uL
- ABSOLUTE LYMPHOCYTE [2]: 11370.67 CELLS/uL
- ABSOLUTE MONOCYTE [2]: 0 CELLS/uL
- ABSOLUTE SEGMENTED NEUTROPHIL [2]: 1353.67 CELLS/uL
- BASOPHIL [2]: 0%
- EOSINOPHIL [2]: 1.67%
- ERYTHROCYTE COUNT [2]: 4.88 x10E6/uL
- HEMATOCRIT [2]: 32.03%
- HEMOGLOBIN [2]: 12.37 G/DL
- LEUKOCYTE COUNT [2]: 12.97 x10E3/uL
- LYMPHOCYTE [2]: 87.67%
- MEAN CORPUSCULAR HEMOGLOBIN [2]: 25.37 pg
- MEAN CORPUSCULAR HEMOGLOBIN CONCENTRATION [2]: 38.6 G/DL
- MEAN CORPUSCULAR VOLUME [2]: 65.7 fL
- MONOCYTE [2]: 0%
- NEUTROPHIL [2]: 10.67%
- NUCLEATED RED BLOOD CELLS [2]: 0 /100WBC
- PLATELET COUNT [2]: 1202.33 x10E3/uL
- ALANINE AMINOTRANSFERASE [2]: 42.67 u/L
- ALBUMIN [2]: 4.27 G/DL
- ALKALINE PHOSPHATASE [2]: 298 u/L
- ASPARTATE AMINOTRANSFERASE [2]: 82 u/L
- BLOOD UREA NITROGEN [2]: 18 mg/dL
- CARBON DIOXIDE [2]: 24.33 mmol/L
- CHLORIDE [2]: 110.67 MEQ/L
- CHOLESTEROL [2]: 82.67 mg/dL
- CREATINE PHOSPHOKINASE [2]: 343.67 u/L
- CREATININE [2]: 0.16 mg/dL
- GLUCOSE [2]: 201 mg/dL
- LACTATE DEHYDROGENASE [2]: 99 u/L
- LIPASE [2]: 8.33 u/L
- PHOSPHORUS [2]: 12 mg/dL
- POTASSIUM [2]: 5.55 MEQ/L
- SODIUM [2]: 148.1 MEQ/L
- TOTAL BILIRUBIN [2]: 0.1 mg/dL
- TOTAL PROTEIN [2]: 5.8 G/DL
- URIC ACID [2]: 2.17 mg/dL
- ABSOLUTE BASOPHIL [3]: 0 CELLS/uL
- ABSOLUTE EOSINOPHIL [3]: 0 CELLS/uL
- ABSOLUTE LYMPHOCYTE [3]: 10293 CELLS/uL
- ABSOLUTE MONOCYTE [3]: 39 CELLS/uL
- ABSOLUTE SEGMENTED NEUTROPHIL [3]: 901.33 CELLS/uL
- BASOPHIL [3]: 0%
- EOSINOPHIL [3]: 0%
- ERYTHROCYTE COUNT [3]: 5.44 x10E6/uL
- HEMATOCRIT [3]: 34.1%
- HEMOGLOBIN [3]: 13.07 G/DL
- LEUKOCYTE COUNT [3]: 11.23 x10E3/uL
- LYMPHOCYTE [3]: 91.67%
- MEAN CORPUSCULAR HEMOGLOBIN [3]: 24.03 pg
- MEAN CORPUSCULAR HEMOGLOBIN CONCENTRATION [3]: 38.33 G/DL
- MEAN CORPUSCULAR VOLUME [3]: 62.67 fL
- MONOCYTE [3]: 0.33%
- NEUTROPHIL [3]: 8%
- NUCLEATED RED BLOOD CELLS [3]: 0 /100WBC
- PLATELET COUNT [3]: 1190 x10E3/uL
- ALANINE AMINOTRANSFERASE [3]: 44.33 u/L
- ALBUMIN [3]: 4.33 G/DL
- ALKALINE PHOSPHATASE [3]: 313.67 u/L
- ASPARTATE AMINOTRANSFERASE [3]: 87 u/L
- BLOOD UREA NITROGEN [3]: 21.33 mg/dL
- CARBON DIOXIDE [3]: 24.33 mmol/L
- CHLORIDE [3]: 103 MEQ/L
- CHOLESTEROL [3]: 75.67 mg/dL
- CREATINE PHOSPHOKINASE [3]: 564.67 u/L
- CREATININE [3]: 0.21 mg/dL
- GLUCOSE [3]: 159 mg/dL
- LACTATE DEHYDROGENASE [3]: 210 u/L
- LIPASE [3]: 8.33 u/L
- PHOSPHORUS [3]: 11.87 mg/dL
- POTASSIUM [3]: 6.38 MEQ/L
- SODIUM [3]: 144.57 MEQ/L
- TOTAL BILIRUBIN [3]: 0.13 mg/dL
- TOTAL PROTEIN [3]: 5.97 G/DL
- URIC ACID [3]: 1.67 mg/dL
